Measured values as given in ChEMBL document CHEMBL5465560, “Selectivity Literature for EUbOPEN Chemogenomic Library” (2024).
pIC50: −log10 of the molar value.

What was measured:
[1] = biological target: Mitogen-activated protein kinase 9 (Homo sapiens, UniProt P45984); conditions: at 10 µM
[2] = test system: eIF-2-alpha kinase GCN2 (Homo sapiens), Q9P2K8 [S808G]; assay: Selectivity interaction (KinomeScan (DiscoverX)) EUB0000229b EIF2AK4; conditions: at 10 µM
[3] = biological target: Cyclin-dependent kinase 7 (Homo sapiens, UniProt P50613); assay: Selectivity interaction (KinomeScan (DiscoverX)) EUB0000092b CDK7; conditions: at 10 µM
Cyclin-dependent kinase 7, sequence (P50613 whole entry): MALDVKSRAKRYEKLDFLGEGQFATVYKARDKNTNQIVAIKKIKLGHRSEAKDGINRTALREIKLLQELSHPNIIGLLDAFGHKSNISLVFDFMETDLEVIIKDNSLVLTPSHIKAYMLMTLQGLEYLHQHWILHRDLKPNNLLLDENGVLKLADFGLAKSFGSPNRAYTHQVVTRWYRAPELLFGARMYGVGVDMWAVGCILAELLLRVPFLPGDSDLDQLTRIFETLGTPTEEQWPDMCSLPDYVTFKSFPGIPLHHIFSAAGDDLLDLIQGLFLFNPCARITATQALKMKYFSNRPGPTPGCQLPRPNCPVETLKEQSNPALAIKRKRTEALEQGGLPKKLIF

[4] = biological target: Receptor-type tyrosine-protein kinase FLT3 (Homo sapiens) (UniProt P36888); assay: Selectivity interaction (Millipore kinase profiler) EUB0000124b FLT3; conditions: at 10 µM
Receptor-type tyrosine-protein kinase FLT3 (Homo sapiens), sequence (P36888 whole entry): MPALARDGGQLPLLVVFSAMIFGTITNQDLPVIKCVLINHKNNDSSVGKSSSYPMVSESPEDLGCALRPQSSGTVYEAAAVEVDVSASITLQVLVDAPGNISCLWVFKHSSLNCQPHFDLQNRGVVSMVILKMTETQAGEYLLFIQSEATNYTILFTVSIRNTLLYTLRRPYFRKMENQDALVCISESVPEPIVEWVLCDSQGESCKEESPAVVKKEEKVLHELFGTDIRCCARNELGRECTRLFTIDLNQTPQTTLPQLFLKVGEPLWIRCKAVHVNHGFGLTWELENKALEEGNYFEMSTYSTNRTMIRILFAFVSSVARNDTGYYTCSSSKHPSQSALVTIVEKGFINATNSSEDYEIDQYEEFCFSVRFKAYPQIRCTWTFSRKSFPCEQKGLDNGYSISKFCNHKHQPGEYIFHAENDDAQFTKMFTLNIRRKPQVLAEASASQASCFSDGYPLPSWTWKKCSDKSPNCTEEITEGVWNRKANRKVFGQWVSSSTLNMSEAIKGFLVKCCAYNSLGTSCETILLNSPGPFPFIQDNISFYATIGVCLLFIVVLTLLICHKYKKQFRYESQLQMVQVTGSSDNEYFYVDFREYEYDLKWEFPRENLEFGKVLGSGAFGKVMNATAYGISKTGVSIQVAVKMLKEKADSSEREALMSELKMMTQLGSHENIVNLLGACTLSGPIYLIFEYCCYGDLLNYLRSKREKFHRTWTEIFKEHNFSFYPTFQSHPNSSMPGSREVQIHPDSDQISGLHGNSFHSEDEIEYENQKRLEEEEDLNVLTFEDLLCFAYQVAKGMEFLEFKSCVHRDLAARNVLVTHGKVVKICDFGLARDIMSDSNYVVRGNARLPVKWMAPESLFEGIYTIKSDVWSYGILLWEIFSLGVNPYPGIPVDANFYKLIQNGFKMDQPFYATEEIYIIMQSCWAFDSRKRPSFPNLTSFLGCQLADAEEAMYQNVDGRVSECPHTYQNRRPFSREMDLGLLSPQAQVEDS

[5] = biological target: Serine/threonine-protein kinase PAK 3 (Homo sapiens) (UniProt O75914); assay: Selectivity interaction (KinaseProfiler screening (Millipore)) EUB0000601a PAK3; conditions: at 3 µM
Serine/threonine-protein kinase PAK 3 (Homo sapiens), sequence (O75914 whole entry, looked up): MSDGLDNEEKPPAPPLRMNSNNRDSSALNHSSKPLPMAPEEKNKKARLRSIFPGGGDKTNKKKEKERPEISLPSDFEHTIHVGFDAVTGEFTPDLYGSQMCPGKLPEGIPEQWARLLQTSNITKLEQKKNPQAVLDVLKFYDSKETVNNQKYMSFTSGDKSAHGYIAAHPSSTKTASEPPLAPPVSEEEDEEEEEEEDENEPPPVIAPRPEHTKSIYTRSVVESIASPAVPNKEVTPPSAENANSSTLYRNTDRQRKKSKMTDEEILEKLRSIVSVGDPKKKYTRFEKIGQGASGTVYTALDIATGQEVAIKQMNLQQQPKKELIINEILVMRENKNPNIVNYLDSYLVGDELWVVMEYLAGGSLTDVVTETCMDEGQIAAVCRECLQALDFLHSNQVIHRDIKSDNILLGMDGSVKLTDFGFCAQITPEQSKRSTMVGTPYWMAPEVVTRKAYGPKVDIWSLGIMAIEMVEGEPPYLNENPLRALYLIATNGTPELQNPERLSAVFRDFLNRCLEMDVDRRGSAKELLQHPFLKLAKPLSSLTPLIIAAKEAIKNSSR

[6] = biological target: Mitogen-activated protein kinase 14 (Homo sapiens, UniProt Q16539); assay: Selectivity interaction (Enzyme panel (AstraZeneca, AlphaScreen, functional assay)) EUB0000621a MAPK14
Mitogen-activated protein kinase 14, sequence (Q16539 whole entry): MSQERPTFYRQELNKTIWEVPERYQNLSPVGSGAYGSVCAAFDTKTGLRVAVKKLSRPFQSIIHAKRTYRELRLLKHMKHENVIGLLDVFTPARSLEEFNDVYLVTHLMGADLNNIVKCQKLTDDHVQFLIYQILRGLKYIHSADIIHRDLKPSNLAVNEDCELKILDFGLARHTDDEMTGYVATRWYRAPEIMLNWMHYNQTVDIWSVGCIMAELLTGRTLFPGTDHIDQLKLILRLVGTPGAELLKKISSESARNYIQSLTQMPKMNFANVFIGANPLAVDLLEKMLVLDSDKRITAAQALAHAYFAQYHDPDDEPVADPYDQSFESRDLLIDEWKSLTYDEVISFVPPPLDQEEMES

[7] = biological target: T1, Serine/threonine-protein kinase Chk1 (Homo sapiens) (UniProt O14757); conditions: at 10 µM
T1 sequence (whole entry): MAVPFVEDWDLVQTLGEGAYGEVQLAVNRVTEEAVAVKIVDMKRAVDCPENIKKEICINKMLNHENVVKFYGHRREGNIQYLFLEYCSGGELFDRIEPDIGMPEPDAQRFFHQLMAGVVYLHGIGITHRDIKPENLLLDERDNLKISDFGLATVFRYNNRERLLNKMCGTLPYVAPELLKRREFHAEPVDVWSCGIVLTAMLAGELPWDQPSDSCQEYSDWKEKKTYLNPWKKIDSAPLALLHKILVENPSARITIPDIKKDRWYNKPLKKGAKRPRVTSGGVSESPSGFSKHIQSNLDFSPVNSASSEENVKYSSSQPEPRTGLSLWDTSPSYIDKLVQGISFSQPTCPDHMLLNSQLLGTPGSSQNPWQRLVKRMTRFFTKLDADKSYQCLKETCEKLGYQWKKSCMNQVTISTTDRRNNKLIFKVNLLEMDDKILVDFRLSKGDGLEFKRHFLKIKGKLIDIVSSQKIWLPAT

[8] = biological target: Ribosomal protein S6 kinase alpha-5 (Homo sapiens) (UniProt O75582); conditions: at 10 µM
Ribosomal protein S6 kinase alpha-5 (Homo sapiens), sequence (O75582 whole entry, looked up, canonical isoform): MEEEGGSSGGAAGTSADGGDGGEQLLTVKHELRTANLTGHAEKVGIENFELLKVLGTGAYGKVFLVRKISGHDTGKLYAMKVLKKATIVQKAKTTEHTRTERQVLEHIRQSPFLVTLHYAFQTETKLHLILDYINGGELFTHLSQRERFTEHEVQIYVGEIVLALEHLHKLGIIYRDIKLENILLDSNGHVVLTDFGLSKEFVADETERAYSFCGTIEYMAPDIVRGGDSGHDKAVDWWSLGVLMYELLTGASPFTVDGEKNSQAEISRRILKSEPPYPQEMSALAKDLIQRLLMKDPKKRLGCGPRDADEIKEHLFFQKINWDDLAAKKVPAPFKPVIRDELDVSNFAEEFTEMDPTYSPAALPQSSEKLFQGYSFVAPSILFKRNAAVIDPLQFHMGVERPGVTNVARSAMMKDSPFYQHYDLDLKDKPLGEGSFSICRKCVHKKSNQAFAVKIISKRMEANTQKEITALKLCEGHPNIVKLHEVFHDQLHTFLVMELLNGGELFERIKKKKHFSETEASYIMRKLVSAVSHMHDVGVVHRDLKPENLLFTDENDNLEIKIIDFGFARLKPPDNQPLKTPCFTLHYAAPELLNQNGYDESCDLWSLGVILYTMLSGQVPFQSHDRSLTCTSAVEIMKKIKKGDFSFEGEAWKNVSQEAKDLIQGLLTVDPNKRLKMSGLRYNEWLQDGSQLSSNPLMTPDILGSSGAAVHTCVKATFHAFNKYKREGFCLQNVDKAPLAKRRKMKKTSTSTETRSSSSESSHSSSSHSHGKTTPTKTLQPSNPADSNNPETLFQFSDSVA

[9] = biological target: T2, Phosphatidylinositol 4,5-bisphosphate 3-kinase catalytic subunit delta isoform (Homo sapiens) (UniProt O00329); assay: Selectivity interaction (ActivX KiNativ screen (kinase selectivity in THP-1 cell lysates)) EUB0000639a PIK3CD; assay type: subcellular; conditions: lysate
T2 sequence (whole entry): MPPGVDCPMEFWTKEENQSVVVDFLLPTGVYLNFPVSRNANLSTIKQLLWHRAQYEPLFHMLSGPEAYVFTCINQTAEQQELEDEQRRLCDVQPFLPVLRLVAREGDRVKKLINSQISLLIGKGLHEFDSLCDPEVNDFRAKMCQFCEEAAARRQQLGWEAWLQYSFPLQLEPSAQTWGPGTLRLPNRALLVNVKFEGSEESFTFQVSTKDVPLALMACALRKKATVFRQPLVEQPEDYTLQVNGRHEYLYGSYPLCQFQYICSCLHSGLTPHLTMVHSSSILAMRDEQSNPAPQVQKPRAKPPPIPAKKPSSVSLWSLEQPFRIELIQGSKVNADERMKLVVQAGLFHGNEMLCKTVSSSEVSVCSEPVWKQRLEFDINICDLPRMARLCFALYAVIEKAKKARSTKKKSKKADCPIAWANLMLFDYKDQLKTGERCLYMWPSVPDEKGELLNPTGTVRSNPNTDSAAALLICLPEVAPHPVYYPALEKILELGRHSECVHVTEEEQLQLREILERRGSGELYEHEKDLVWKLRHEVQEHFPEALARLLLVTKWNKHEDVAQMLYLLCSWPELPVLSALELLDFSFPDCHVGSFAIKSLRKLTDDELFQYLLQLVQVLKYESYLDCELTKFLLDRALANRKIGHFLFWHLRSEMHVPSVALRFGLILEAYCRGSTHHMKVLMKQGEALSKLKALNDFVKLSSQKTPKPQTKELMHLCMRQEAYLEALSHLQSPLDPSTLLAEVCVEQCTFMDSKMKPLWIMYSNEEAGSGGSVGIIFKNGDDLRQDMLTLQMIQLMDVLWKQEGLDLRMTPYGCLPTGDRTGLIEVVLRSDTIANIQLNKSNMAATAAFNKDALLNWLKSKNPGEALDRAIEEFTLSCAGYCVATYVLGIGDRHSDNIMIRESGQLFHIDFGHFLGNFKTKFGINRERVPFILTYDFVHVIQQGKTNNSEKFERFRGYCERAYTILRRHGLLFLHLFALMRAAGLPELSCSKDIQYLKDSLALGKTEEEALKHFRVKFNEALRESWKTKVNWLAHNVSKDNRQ

[10] = biological target: T3, Dual specificity tyrosine-phosphorylation-regulated kinase 2 (Homo sapiens, UniProt Q92630); assay: Selectivity interaction (Enzymatic assay (Eurofins)) EUB0001049a DYRK2
T3 sequence (Q92630 whole entry): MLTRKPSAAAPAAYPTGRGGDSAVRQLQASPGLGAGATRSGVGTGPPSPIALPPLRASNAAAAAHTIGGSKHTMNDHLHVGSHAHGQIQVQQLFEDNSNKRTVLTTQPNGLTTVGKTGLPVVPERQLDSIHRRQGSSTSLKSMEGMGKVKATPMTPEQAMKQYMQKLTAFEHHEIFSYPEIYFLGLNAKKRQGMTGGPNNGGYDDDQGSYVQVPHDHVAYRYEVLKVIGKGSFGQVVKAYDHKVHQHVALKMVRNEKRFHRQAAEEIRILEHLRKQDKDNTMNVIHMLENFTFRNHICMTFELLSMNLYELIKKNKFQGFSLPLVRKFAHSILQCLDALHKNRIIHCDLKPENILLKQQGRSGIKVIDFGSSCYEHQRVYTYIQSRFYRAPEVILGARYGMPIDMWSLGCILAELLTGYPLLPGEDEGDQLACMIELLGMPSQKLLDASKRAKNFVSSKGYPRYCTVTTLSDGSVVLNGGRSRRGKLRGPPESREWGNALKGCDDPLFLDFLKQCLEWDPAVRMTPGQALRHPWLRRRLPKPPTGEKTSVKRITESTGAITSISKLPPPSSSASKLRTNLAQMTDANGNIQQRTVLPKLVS

[11] = biological target: Histone-lysine N-methyltransferase SETDB1 (Homo sapiens) (UniProt Q15047); assay: Selectivity interaction (Methyltransferase screen (radiometric assays, panel of 8 PRMTs, 21 protein lysine methyltransferases, 3 DNA methyltransferases, and one RNA methyltransferase)) EUB0000271b SETDB1
[12] = biological target: Ephrin type-A receptor 2 (Homo sapiens) (UniProt P29317); assay: Selectivity interaction (Ambit KINOMEscan and KiNATiv profiling in Jurkat cells) EUB0000090b EPHA2; assay type: cell-based; conditions: at 1 µM

eIF-2-alpha kinase GCN2 (Homo sapiens), Q9P2K8 [S808G], sequence (Q9P2K8 whole entry S808G): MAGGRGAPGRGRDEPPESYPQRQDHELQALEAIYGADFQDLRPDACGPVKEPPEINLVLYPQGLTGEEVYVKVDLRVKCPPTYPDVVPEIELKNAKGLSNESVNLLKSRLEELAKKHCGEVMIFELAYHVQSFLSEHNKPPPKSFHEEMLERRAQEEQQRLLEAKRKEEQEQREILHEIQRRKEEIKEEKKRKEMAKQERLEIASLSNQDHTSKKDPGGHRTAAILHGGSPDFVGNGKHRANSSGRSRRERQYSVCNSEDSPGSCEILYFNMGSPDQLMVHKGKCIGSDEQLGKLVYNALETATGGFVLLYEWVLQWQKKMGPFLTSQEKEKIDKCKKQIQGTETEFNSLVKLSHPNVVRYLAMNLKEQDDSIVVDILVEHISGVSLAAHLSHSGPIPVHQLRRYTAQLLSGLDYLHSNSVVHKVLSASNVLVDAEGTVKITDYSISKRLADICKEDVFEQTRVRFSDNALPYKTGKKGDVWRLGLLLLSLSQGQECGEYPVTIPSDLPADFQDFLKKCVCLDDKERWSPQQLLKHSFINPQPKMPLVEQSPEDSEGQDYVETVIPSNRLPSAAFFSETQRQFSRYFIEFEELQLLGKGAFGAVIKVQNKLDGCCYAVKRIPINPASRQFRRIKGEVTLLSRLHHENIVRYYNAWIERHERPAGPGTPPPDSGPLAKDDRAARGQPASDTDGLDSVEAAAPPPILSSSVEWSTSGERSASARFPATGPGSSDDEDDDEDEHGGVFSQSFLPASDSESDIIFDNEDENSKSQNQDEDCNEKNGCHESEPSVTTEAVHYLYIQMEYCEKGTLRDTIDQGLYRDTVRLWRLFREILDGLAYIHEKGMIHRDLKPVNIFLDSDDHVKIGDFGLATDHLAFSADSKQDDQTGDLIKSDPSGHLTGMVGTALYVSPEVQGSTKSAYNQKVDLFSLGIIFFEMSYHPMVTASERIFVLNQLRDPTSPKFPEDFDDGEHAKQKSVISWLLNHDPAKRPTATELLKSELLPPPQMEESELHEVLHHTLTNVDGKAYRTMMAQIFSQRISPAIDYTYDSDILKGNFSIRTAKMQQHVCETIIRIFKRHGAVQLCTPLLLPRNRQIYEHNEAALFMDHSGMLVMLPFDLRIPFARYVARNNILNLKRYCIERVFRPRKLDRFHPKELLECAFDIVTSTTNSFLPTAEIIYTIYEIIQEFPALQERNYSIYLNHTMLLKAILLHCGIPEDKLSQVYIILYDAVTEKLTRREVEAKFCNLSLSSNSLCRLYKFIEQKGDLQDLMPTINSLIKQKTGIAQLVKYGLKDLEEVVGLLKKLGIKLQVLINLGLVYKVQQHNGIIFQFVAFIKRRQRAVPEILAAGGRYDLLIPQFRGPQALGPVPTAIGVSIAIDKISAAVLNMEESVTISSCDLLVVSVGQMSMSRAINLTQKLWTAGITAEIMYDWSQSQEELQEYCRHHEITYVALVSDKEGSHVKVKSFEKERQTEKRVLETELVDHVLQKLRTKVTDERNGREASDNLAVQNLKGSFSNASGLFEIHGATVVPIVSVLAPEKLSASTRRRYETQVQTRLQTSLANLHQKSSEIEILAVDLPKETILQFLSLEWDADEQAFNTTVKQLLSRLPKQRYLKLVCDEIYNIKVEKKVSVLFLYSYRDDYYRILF

With CCN(CC)CCCCNc1ncc2cc(-c3cc(OC)cc(OC)c3)c(NC(=O)NC(C)(C)C)nc2n1 the % of control [1] was 100%.
Compound COc1cc(N(C)c2ccnc3ccc(C(F)(F)F)cc23)cc(OC)c1OC has a % binding [2] of 100%.
CCC(=O)N1CCN(c2ccc(-n3c(=O)ccc4cnc5ccc(-c6cnc7ccccc7c6)cc5c43)cc2C(F)(F)F)CC1 showed a % of control [3] of 57%.
For CC(=O)Nc1cccc(-n2c(=O)n(C3CC3)c(=O)c3c(Nc4ccc(I)cc4F)n(C)c(=O)c(C)c32)c1, the % of control [4] was 107%.
CCc1cc(Nc2nccc(-c3c(-c4ccc(OC)c(C(=O)Nc5c(F)cccc5F)c4)nc4ccccn34)n2)c(OC)cc1N1CCC(N2CCN(S(C)(=O)=O)CC2)CC1 showed a % of inhibition [5] of 53%.
In the case of Cc1cc([C@@H](C)Nc2ccccc2C(=O)O)c2nc(N3CCOCC3)cc(=O)n2c1 [AZD-6482], the pIC50 [6] was under 3.17, the % of control [7] was 100% and the % of control [8] was 91%.
With CC[C@@H]1[C@H](F)C(=O)N[C@@H]1COc1nccc2cc(C(N)=O)c(OC)cc12 [ZIMLOVISERTIB] the % of inhibition ([9]; at 0.01 µM) was -1.5%, the % of inhibition ([9]; at 0.04 µM) was -1.9% and the % of inhibition ([9]; at 0.2 µM) was -4.2%. It also gave a % of inhibition ([9]; at 1 µM) of 17.9% and a % of inhibition ([9]; at 5 µM) of 22.6%.
Work on COc1cc(Nc2nc(C)cc(-c3cnn4nc(OC)ccc34)n2)cc(C(F)(F)F)c1 yielded a pIC50 [10] of under 5.00.
With Cc1cc(C)cc([C@@H]2c3cc(C)ccc3NC(=O)CN2C(=O)c2ccc(Br)s2)c1 the % of activity ([11]; at 1 µM) was 102% and the % of activity ([11]; at 10 µM) was 104%.
Compound CN(C)C/C=C/C(=O)Nc1ccc(C(=O)N2CCCC(Nc3ncc(Cl)c(-c4c[nH]c5ccccc45)n3)C2)cc1 (configuration not stated) has a % of control [12] of 98%.
